Measured values reported in PubChem BioAssay (NCI).
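GI50 marks 50% less growth. Definition used: TGI = concentration required for complete inhibition of growth.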

What was measured:
Experiment in all cases: NCI tumour cell line growth inhibition, 384-well format
MDA-MB-231 breast = system: MDA-MB-231 breast
IGROV1 ovarian = system: IGROV1 ovarian
MDA-MB-468 breast = system: MDA-MB-468 breast
NCI-H226 lung = system: NCI-H226 lung
SK-MEL-28 melanoma = system: SK-MEL-28 melanoma
OVCAR-3 ovarian = system: OVCAR-3 ovarian
A549 NSCLC = system: A549 NSCLC
SF-539 CNS = system: SF-539 CNS
NCI-H460 NSCLC = system: NCI-H460 NSCLC
UO-31 renal = system: UO-31 renal
MOLT-4 leukemia = system: MOLT-4 leukemia
BT-549 breast = system: BT-549 breast
RPMI-8226 leukemia = system: RPMI-8226 leukemia
OVCAR-8 ovarian = system: OVCAR-8 ovarian
HT29 colon = system: HT29 colon
A498 renal = system: A498 renal
HCC-2998 colon = system: HCC-2998 colon
MCF7 breast = system: MCF7 breast
OVCAR-4 ovarian = system: OVCAR-4 ovarian
RXF 393 renal = system: RXF 393 renal
SNB-19 CNS = system: SNB-19 CNS
HOP-62 NSCLC = system: HOP-62 NSCLC
TK-10 renal = system: TK-10 renal
CAKI-1 renal = system: CAKI-1 renal
OVCAR-5 ovarian = system: OVCAR-5 ovarian
T-47D breast = system: T-47D breast
SK-OV-3 ovarian = system: SK-OV-3 ovarian
NCI-H322M lung = system: NCI-H322M lung
SF-268 CNS = system: SF-268 CNS
NCI-H522 lung = system: NCI-H522 lung
NCI-H23 lung = system: NCI-H23 lung
SF-295 CNS = system: SF-295 CNS
MDA-MB-435 melanoma = system: MDA-MB-435 melanoma
CCRF-CEM leukemia = system: CCRF-CEM leukemia
HCT-116 colon = system: HCT-116 colon
ACHN renal = system: ACHN renal
SNB-75 CNS = system: SNB-75 CNS
KM12 colon = system: KM12 colon
NCI/ADR-RES ovarian = system: NCI/ADR-RES ovarian
SW-620 colon = system: SW-620 colon
SN12C renal = system: SN12C renal
PC-3 prostate = system: PC-3 prostate
HL-60(TB) leukemia = system: HL-60(TB) leukemia
HOP-92 NSCLC = system: HOP-92 NSCLC
EKVX NSCLC = system: EKVX NSCLC
SR leukemia = system: SR leukemia
HS 578T breast = system: HS 578T breast

Compound: Cc1ccc(Nc2nc(N)c(C(=O)c3ccc(C#N)cc3)s2)cc1
- GI50 (MDA-MB-231 breast): 202 nM
- TGI (MDA-MB-231 breast): 35800 nM
- GI50 (IGROV1 ovarian): 73.2 nM
- TGI (IGROV1 ovarian): 15300 nM
- GI50 (MDA-MB-468 breast): 185 nM
- TGI (MDA-MB-468 breast): 352 nM
- GI50 (NCI-H226 lung): 39.3 nM
- TGI (NCI-H226 lung): 2070 nM
- GI50 (SK-MEL-28 melanoma): 14600 nM
- TGI (SK-MEL-28 melanoma): 74900 nM
- GI50 (OVCAR-3 ovarian): 170 nM
- TGI (OVCAR-3 ovarian): 414 nM
- GI50 (A549 NSCLC): 247 nM
- TGI (A549 NSCLC): > 100000 nM
- GI50 (SF-539 CNS): 188 nM
- TGI (SF-539 CNS): 393 nM
- GI50 (NCI-H460 NSCLC): 178 nM
- TGI (NCI-H460 NSCLC): 351 nM
- GI50 (UO-31 renal): 69 nM
- TGI (UO-31 renal): 1720 nM
- GI50 (MOLT-4 leukemia): 128 nM
- TGI (MOLT-4 leukemia): 256 nM
- GI50 (BT-549 breast): 38.2 nM
- TGI (BT-549 breast): 1310 nM
- GI50 (RPMI-8226 leukemia): 30.9 nM
- TGI (RPMI-8226 leukemia): 112 nM
- GI50 (OVCAR-8 ovarian): 86.7 nM
- TGI (OVCAR-8 ovarian): 40300 nM
- GI50 (HT29 colon): 34 nM
- TGI (HT29 colon): 28200 nM
- GI50 (A498 renal): 298 nM
- TGI (A498 renal): 16400 nM
- GI50 (HCC-2998 colon): 105 nM
- TGI (HCC-2998 colon): 572 nM
- GI50 (MCF7 breast): 40.2 nM
- TGI (MCF7 breast): 28200 nM
- GI50 (OVCAR-4 ovarian): 385 nM
- TGI (OVCAR-4 ovarian): 17800 nM
- GI50 (RXF 393 renal): 23.3 nM
- TGI (RXF 393 renal): 51.2 nM
- GI50 (SNB-19 CNS): 325 nM
- TGI (SNB-19 CNS): > 100000 nM
- GI50 (HOP-62 NSCLC): 38.6 nM
- TGI (HOP-62 NSCLC): 3610 nM
- GI50 (TK-10 renal): 447 nM
- TGI (TK-10 renal): 22200 nM
- GI50 (CAKI-1 renal): 56.6 nM
- TGI (CAKI-1 renal): 11200 nM
- GI50 (OVCAR-5 ovarian): 1460 nM
- TGI (OVCAR-5 ovarian): 55100 nM
- GI50 (T-47D breast): 743 nM
- TGI (T-47D breast): 26300 nM
- GI50 (SK-OV-3 ovarian): 247 nM
- TGI (SK-OV-3 ovarian): 18300 nM
- GI50 (NCI-H322M lung): 481 nM
- TGI (NCI-H322M lung): 46400 nM
- GI50 (SF-268 CNS): 45.8 nM
- TGI (SF-268 CNS): 2520 nM
- GI50 (NCI-H522 lung): 121 nM
- TGI (NCI-H522 lung): 292 nM
- GI50 (NCI-H23 lung): 47.9 nM
- TGI (NCI-H23 lung): 1470 nM
- GI50 (SF-295 CNS): 57.8 nM
- TGI (SF-295 CNS): 298 nM
- GI50 (MDA-MB-435 melanoma): 41.9 nM
- TGI (MDA-MB-435 melanoma): 151 nM
- GI50 (CCRF-CEM leukemia): 170 nM
- TGI (CCRF-CEM leukemia): 310 nM
- GI50 (HCT-116 colon): 243 nM
- TGI (HCT-116 colon): 976 nM
- GI50 (ACHN renal): 72.5 nM
- TGI (ACHN renal): 17800 nM
- GI50 (SNB-75 CNS): 37 nM
- TGI (SNB-75 CNS): 520 nM
- GI50 (KM12 colon): 42 nM
- TGI (KM12 colon): 19900 nM
- GI50 (NCI/ADR-RES ovarian): 28.7 nM
- TGI (NCI/ADR-RES ovarian): 69.1 nM
- GI50 (SW-620 colon): 37.3 nM
- TGI (SW-620 colon): 13900 nM
- GI50 (SN12C renal): 348 nM
- TGI (SN12C renal): 54600 nM
- GI50 (PC-3 prostate): 47.6 nM
- TGI (PC-3 prostate): > 100000 nM
- GI50 (HL-60(TB) leukemia): 19.7 nM
- TGI (HL-60(TB) leukemia): 34.7 nM
- GI50 (HOP-92 NSCLC): 332 nM
- TGI (HOP-92 NSCLC): 23300 nM
- GI50 (EKVX NSCLC): 58.4 nM
- TGI (EKVX NSCLC): 51500 nM
- GI50 (SR leukemia): 18.1 nM
- TGI (SR leukemia): 33.4 nM
- GI50 (HS 578T breast): 22.1 nM
- TGI (HS 578T breast): 47.1 nM
